Results on 14 compounds are retold here after patent publication US8664221B2 (Santen Pharmaceutical Co., Ltd., priority 2008, dated 2014).

Assay [1] deals with carrageenan-induced paw edema model in rats. As to the kind of experiment: Carrageenan-induced paw edema model. The class given is in vivo. Particulars: female Lewis rat; 10 mg/kg oral, 30 minutes before carrageenan; paw volume 3 hr after injection; read-out: Inhibition ratio of paw edema (%). On the procedure: The inhibitory effect for paw edema using carrageenan-induced paw edema model in rats is known as one of the general methods for testing the inhibitory effect on inflammation on the joint and the like. Therefore, the inhibitory effect of the present compound for paw edema was carried out, the inhibition rate of paw edema was calculated, and then the anti-inflammatory effect of the present compound was evaluated based on the rate. The concrete method of the test is described below.
A 2 mg/mL test compound suspension was prepared by adding 1% methyl cellulose (base) to the test compound.
1) The weight and right hind paw volume of female Lewis rat (8˜10 weeks) were measured before drug administration.
2) The test compound suspension was administered at 10 mg/kg to the test compound group. Meanwhile, 1% methyl cellulose was administered orally at 5 mL/kg to the sham-operation group and vehicle group (control group).
3) After 30 minutes from oral administration, 0.1 mL of a 1% w/v carrageenan/distilled water solution was subcutaneously injected into right foot pad. 0.1 mL of distilled water was subcutaneously injected for sham-operation group.
4) The right hind paw volume was measured 3 hr after injection of carrageenan or distilled water.
(Formulation Concerning Estimation of Drug Activity) The increase ratio of paw volume (%)=100×(right hind paw volume 3 hr after injection of carrageenan or distilled water (mL)−right hind paw volume before the test compound administration (mL))/right hind paw volume before the test compound administration (mL) (Calculation Equation 1) The inhibition ratio of paw edema (%)=100−100×(the increase ratio of paw volume of each test compound group (%)−the increase ratio of paw volume of sham-operation group (%))/(the increase of paw volume of vehicle group (%)−the increase of paw volume of sham-operation group (%)) (Calculation Equation 2) (Test Results and Discussion)

The subject of assay [2] is IL-6 production induced by lipopolysaccharide (LPS) in human corneal epithelial cells (HCE-T). As to the kind of experiment: Inhibition of LPS-induced IL-6 production in human corneal epithelial cells (GR agonist activity). Particulars: Corneal epithelial cell, 10 μL of 100 μM test compound solution per well, 4 hours incubation, efficacy relative to DEX. The format is cell-based. The procedure: In order to evaluate a GR agonist activity of the present compound, the inhibitory effects on the IL-6 production induced by lipopolysaccharide (LPS) in human corneal epithelial cells. IL-6 levels in the conditioned medium were measured using the HTRF human IL-6 Kit (boehringer-Ingelheim, Cat No. 62IL6PEB), and the procedure was carried out according to the protocol attached to the kit. Hereinafter, the specific method will be described.
LPS solution: After LPS was dissolved in phosphate buffer solution (hereinafter referred to as PBS(−)), the resulting solution was diluted with 10% FBS-DMEM/F12 medium, whereby a 1 μg/mL LPS solution was prepared.
After a test compound was dissolved in dimethylsulfoxide (hereinafter referred to as DMSO), the resulting solution was diluted with 10% FBS-DMEM/F12 medium, whereby a 100 μM test compound solution was prepared. A 100 μM DEX solution was prepared by the same method, and the inhibitory ratio of IL-6 production of DEX was evaluated to use for calculating efficacy (% DEX).
Used cell: SV40-immortalized human corneal epithelial cells (HCE-T) (RIKEN)
1) HCE-T cells were harvested, and seeded at 2.0×10^4 cells/0.1 mL/well in a 96-well plate.
2) After incubation overnight, the medium was removed and a 80 μL of new 10% FBS-DMEM/Ham's F12 medium was added into each well.
3) A 10 μL of test compounds solution was added into each well.
4) A 10 μL of LPS solution was added into each well.
5) As a negative control, a 10 μL of 10% FBS-DMEM/Ham's F12 medium was added into each well instead of a test compound solution and a LPS solution.
6) As a positive control, a 10 μL of 10% FBS-DMEM/Ham's F12 medium containing 1% DMSO was added into each well instead of a test compound solution.
7) After 4 hours incubation, supernatants were collected and IL-6 levels in the supernatants were quantitated using the HTRF human IL-6 Kit.
8) The inhibition ratio of IL-6 production (%) was calculated according to the following equation.
The inhibition ratio of IL-6 production (%) was calculated according to the following equation. The inhibition ratio of IL-6 production (%)=100×{1−(IL-6 level in each group−mean value of IL-6 level in negative control)/(mean value of IL-6 level in positive control−mean value of IL-6 level in negative control)} (%)
Furthermore, the inhibition ratio of IL-6 production (efficacy (% DEX)) was also calculated according to the following equation. Efficacy(% DEX)=100×{(mean value of IL-6 inhibition in compound-treated group)/(mean value of IL-6 inhibition in DEX-treated group)} (%) (Results and Discussion)

The subject of assay [3] is allergic conjunctivitis model in mice. As to the kind of experiment: Inhibitory effect on vascular hyper-permeability in allergic conjunctivitis model. The format is in vivo. Particulars: male BALB/c mice, ovalbumin-sensitized; 1% (W/V) suspension instilled 15 min, 1 hr and 3 hrs before ovalbumin; Evans blue dye leakage; mean of 6 eyes. On the procedure:
In order to evaluate anti-allergic effect of the present compound, the inhibitory effect on the vascular hyper-permeability in allergic conjunctivitis model in mice was examined. This effect was calculated based on dye leakages of vehicle-treated group (control group) and test compound-treated group.
By adding 0.5% polysorbate 80/saline to the test compound, a 1% (W/V) test compound suspension was prepared.
1) Ovalbumin absorbed on aluminum hydroxide gel was dissolved in saline (20 μg ovalbumin/mL), and male BALB/c mice, 6 weeks old, were actively sensitized to the antigen by intraperitoneal injections of 500 μL of it.
2) On the 6th day from sensitization, sensitized mice were boosted by additional intraperitoneal injections of 500 μL ovalbumin absorbed on aluminum hydroxide gel (20 μg ovalbumin/mL).
3) On the 11th day, 12th day, 13th day, 14th day and 15th day from the first sensitization, allergic conjunctivitis were induced by instillations to the right eyes of the mice of […] of 50% glycerol solution containing 15% (W/V) ovalbumin.
4) […] of test compound suspension per eye was instilled to the right eye of the above mice 15 min, 1 hr and 3 hrs before ovalbumin instillation (three times) on the 15th day from sensitization. In vehicle-treated group (control group), the mice were instilled with 0.5% polysorbate 80/saline in substitution for test compound suspension.
5) Just before ovalbumin instillation on the 15th day from sensitization, all animals received a tail intravenous injection of 0.1% Evans blue dye. The right periocular tissues of the mice, which were the leaked parts of dye, were collected 30 min after ovalbumin instillation. The dye was extracted from the tissues with the dye extraction liquid. Then the absorbance of the dye extract was measured. The dye leakage was calculated from the absorbance value, and the inhibition ratio of the vascular hyper-permeability of test compound-treated group was calculated according to calculation equation 1. The inhibition ratio of the vascular hyper-permeability of test compound-treated group (%)=(1−Ax/Ao)×100 (Calculation Equation 1) • Ao: Dye leakage in vehicle-treated group (control group) • Ax: Dye leakage in test compound-treated group (Test Results and Discussion)

For `COc1cc(OS(=O)(=O)C2CC2)ccc1-c1ccc2c(c1CNc1cc(F)ccc1C)N(C)C(=O)C(C)(C)N2`, the inhibition in vivo at 10 mg/kg in assay [1] came out at 52%. This compound also yielded an Emax in assay [2] of 81%.

Take `CCCS(=O)(=O)Oc1ccc(-c2ccc3c(c2COc2cc(F)ccc2C)N(C)C(=O)C(C)(C)N3)c(OC)c1` [Compound No. 1-2, 8-(5-Fluoro-2-methylphenoxymethyl)-7-(2-methoxy-4-propyl-sulfonyloxyphenyl)-1,3,3-trimethyl-3,4-dihydro-1H-quinoxalin-2-one]: the “The inhibition ratio of the vascular hyper-permeability (%)” value (shortened to “The inhibition ratio … (%)”) in assay [3] is listed as 37%. Besides, the Emax in assay [2] came to 91%.

Consider `CCCCS(=O)(=O)Oc1ccc(-c2ccc3c(c2COc2cc(F)ccc2C)N(C)C(=O)C(C)(C)N3)c(OC)c1` [Compound No. 1-5, 7-(4-Butylsulfonyloxy-2-methoxyphenyl)-8-(5-fluoro-2-methyl-phenoxymethyl)-1,3,3-trimethyl-3,4-dihydro-1H-quinoxalin-2-one], for which, in assay [3], the “The inhibition ratio … (%)” value is 30%. In assay [2], the Emax was found to be 88%.

For the compound `CCS(=O)(=O)Oc1ccc(-c2ccc3c(c2COc2cc(F)ccc2C)N(C)C(=O)C(C)(C)N3)c(OC)c1` [Compound No. 1-6, 7-(4-Ethylsulfonyloxy-2-methoxyphenyl)-8-(5-fluoro-2-methyl-phenoxymethyl)-1,3,3-trimethyl-3,4-dihydro-1H-quinoxalin-2-one], the inhibition in vivo at 10 mg/kg in assay [1] is 63%. The compound also displayed a maximum response (Emax) in assay [2] of 86%.

Regarding `COc1cc(OS(=O)(=O)C(C)C)ccc1-c1ccc2c(c1COc1cc(F)ccc1C)N(C)C(=O)C(C)(C)N2` [Compound No. 1-7, 8-(5-Fluoro-2-methylphenoxymethyl)-7-(4-isopropylsulfonyloxy-2-methoxyphenyl)-1,3,3-trimethyl-3,4-dihydro-1H-quinoxalin-2-one], the inhibition in vivo at 10 mg/kg in assay [1] is 43%. Besides, the Emax in assay [2] was determined as 94%.

Consider `COc1cc(OS(=O)(=O)CC(C)C)ccc1-c1ccc2c(c1COc1cc(F)ccc1C)N(C)C(=O)C(C)(C)N2` [Compound No. 1-11, 8-(5-Fluoro-2-methylphenoxymethyl)-7-(4-isobutylsulfonyloxy-2-methoxyphenyl)-1,3,3-trimethyl-3,4-dihydro-1H-quinoxalin-2-one], for which the “The inhibition ratio … (%)” value in assay [3] was 20%. This compound also came in with an Emax in assay [2] of 99%.

With `COc1cc(OS(=O)(=O)CCC(F)(F)F)ccc1-c1ccc2c(c1COc1cc(F)ccc1C)N(C)C(=O)C(C)(C)N2` [Compound No. 1-12, 8-(5-Fluoro-2-methylphenoxymethyl)-7-[2-methoxy-4-(3,3,3-trifluoro-propylsulfonyloxy)phenyl]-1,3,3-trimethyl-3,4-dihydro-1H-quinoxlin-2-one], the “The inhibition ratio … (%)” value in assay [3] is 15%. The compound further gave a maximum response (Emax) in assay [2] of 100%.

`COc1cc(OS(=O)(=O)C2CCCC2)ccc1-c1ccc2c(c1COc1cc(F)ccc1C)N(C)C(=O)C(C)(C)N2` [Compound No. 1-16, 7-(4-Cyclopentylsulfonyloxy-2-methoxyphenyl)-8-(5-f1uoro-2-methylphenoxymethyl)-1,3,3-trimethly-3,4-dihydro-1H-quinoxalin-2-one]: the “The inhibition ratio … (%)” value in assay [3] came to 18%. Besides, in assay [2], the Emax came to 91%.

For `CCCS(=O)(=O)Oc1ccc(-c2ccc3c(c2COC(=O)c2ccc(C)s2)N(C)C(=O)C(C)(C)N3)c(OC)c1` [Compound No. 1-22, 7-(2-Methoxy-4-propylsulfonyloxyphenyl)-8-(5-methylthiophen-2-ylcarbonyloxymethyl)-1,3,3-trimethyl-3,4-dihydro-1H-quinoxalin-2-one], the “The inhibition ratio … (%)” value in assay [3] is on record as 21%. This compound also had a maximal effect (Emax) in assay [2] of 99%.

With `COc1cc(OS(=O)(=O)C(C)C)ccc1-c1ccc2c(c1COC(=O)c1ccc(C)s1)N(C)C(=O)C(C)(C)N2` [Compound No. 1-23, 7-(4-Isopropylsulfonyloxy-2-methoxyphenyl)-8-(5-methylthiophen-2-ylcarbonyloxymethyl)-1,3,3-trimethyl-3,4-dihydro-1H-quinoxalin-2-one], the “The inhibition ratio … (%)” value in assay [3] was 10%. The compound further displayed an Emax in assay [2] of 83%.

As to `COc1cc(OS(=O)(=O)C2CC2)ccc1-c1ccc2c(c1COc1cc([N+](=O)[O-])ccc1C)N(C)C(=O)C(C)(C)N2` [Compound No. 1-32, 7-(4-Cyclopropylsulfonyloxy-2-methoxyphenyl)-8-(2-methyl-5-nitrophenoxymethyl)-1,3,3-trimethyl-3,4-dihydro-1H-quinoxalin-2-one], in assay [1], the inhibition in vivo at 10 mg/kg worked out at 61%. Further, in assay [2], the Emax was 90%.

On to `CCCS(=O)(=O)Oc1ccc(-c2ccc3c(c2CNc2cc(F)ccc2C)N(C)C(=O)C(C)(C)N3)c(OC)c1` [Compound No. 1-44, 8-(5-Fluoro-2-methylphenylaminomethyl)-7-(2-methoxy-4-propyl-sulfonyloxyphenyl)-1,3,3-trimethyl-3,4-dihydro-1H-quinoxalin-2-one], for which the “The inhibition ratio … (%)” value in assay [3] is given as 22%. Further, the maximal effect (Emax) in assay [2] is 88%.

`COc1ccccc1NCc1c(-c2ccc(OS(=O)(=O)C(C)C)cc2OC)ccc2c1N(C)C(=O)C(C)(C)N2` [Compound No. 2-5]: the inhibition in vivo at 10 mg/kg in assay [1] worked out at 40%. The compound further returned an Emax in assay [2] of 74%.

Regarding `COc1ccccc1NCc1c(-c2ccc(OS(=O)(=O)C3CCCC3)cc2OC)ccc2c1N(C)C(=O)C(C)(C)N2` [Compound No. 2-6, 7-(4-Cyclopentylsulfonyloxy-2-methoxypheny1)-8-(2-methoxyphenylaminomethyl)-1,3,3-trimethyl-3,4-dihydro-1H-quinoxalin-2-one], in assay [3], the “The inhibition ratio … (%)” value is reported as 13%. Moreover, in assay [2], the Emax was determined as 82%.
